From PubChem BioAssay (NCI)
Values joined by “and” are separate entries in the source; they are usually repeats but may differ in a detail not shown here. Equal entries are not always repeated.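 The compound was tested at five concentrations on cells cultured in 96-well plates, with a 48-hour exposure period. At the GI50, growth is halved. TGI denotes the concentration required for complete inhibition of growth.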

Columns and labels:
Assay in all cases: NCI anticancer screen, dose series, 48 h
786-0 renal = system: 786-0 renal
A549 NSCLC = system: A549 NSCLC
ACHN renal = system: ACHN renal
CAKI-1 renal = system: CAKI-1 renal
COLO 205 colon = system: COLO 205 colon
DMS 273 small cell lung = system: DMS 273 small cell lung
EKVX NSCLC = system: EKVX NSCLC
HCC-2998 colon = system: HCC-2998 colon
HCT-116 colon = system: HCT-116 colon
HCT-15 colon = system: HCT-15 colon
HOP-92 NSCLC = system: HOP-92 NSCLC
HT29 colon = system: HT29 colon
IGROV1 ovarian = system: IGROV1 ovarian
K-562 leukemia = system: K-562 leukemia
KM12 colon = system: KM12 colon
KM20L2 colon = system: KM20L2 colon
LXFL 529 NSCLC = system: LXFL 529 NSCLC
M19-MEL melanoma = system: M19-MEL melanoma
MALME-3M melanoma = system: MALME-3M melanoma
MOLT-4 leukemia = system: MOLT-4 leukemia
NCI-H226 lung = system: NCI-H226 lung
NCI-H23 lung = system: NCI-H23 lung
NCI-H522 lung = system: NCI-H522 lung
OVCAR-3 ovarian = system: OVCAR-3 ovarian
OVCAR-4 ovarian = system: OVCAR-4 ovarian
OVCAR-5 ovarian = system: OVCAR-5 ovarian
OVCAR-8 ovarian = system: OVCAR-8 ovarian
RPMI-8226 leukemia = system: RPMI-8226 leukemia
RXF 393 renal = system: RXF 393 renal
SF-268 CNS = system: SF-268 CNS
SF-295 CNS = system: SF-295 CNS
SK-MEL-2 melanoma = system: SK-MEL-2 melanoma
SK-MEL-28 melanoma = system: SK-MEL-28 melanoma
SK-MEL-5 melanoma = system: SK-MEL-5 melanoma
SK-OV-3 ovarian = system: SK-OV-3 ovarian
SN12C renal = system: SN12C renal
SNB-19 CNS = system: SNB-19 CNS
SNB-75 CNS = system: SNB-75 CNS
SNB-78 CNS = system: SNB-78 CNS
SR leukemia = system: SR leukemia
SW-620 colon = system: SW-620 colon
TK-10 renal = system: TK-10 renal
U251 CNS = system: U251 CNS
UACC-257 melanoma = system: UACC-257 melanoma
UACC-62 melanoma = system: UACC-62 melanoma
UO-31 renal = system: UO-31 renal
A498 renal = system: A498 renal
BT-549 breast = system: BT-549 breast
CCRF-CEM leukemia = system: CCRF-CEM leukemia
DLD-1 colon = system: DLD-1 colon
DMS 114 small cell lung = system: DMS 114 small cell lung
DU-145 prostate = system: DU-145 prostate
HOP-18 NSCLC = system: HOP-18 NSCLC
LOX IMVI melanoma = system: LOX IMVI melanoma
M14 melanoma = system: M14 melanoma
MCF7 breast = system: MCF7 breast
MDA-N = system: MDA-N
NCI-H460 lung = system: NCI-H460 lung
PC-3 prostate = system: PC-3 prostate
T-47D breast = system: T-47D breast

Q: How did the TGI (786-0 renal) turn out when `C/C=C/C(=O)[C@@H](O)C(C)C` was run?
A: > 100000 nM

Q: And the TGI (A549 NSCLC)?
A: > 100000 nM

Q: And the TGI (ACHN renal)?
A: > 100000 nM

Q: What about the TGI (CAKI-1 renal) of the same compound?
A: > 100000 nM

Q: What about the TGI (COLO 205 colon) of the same compound?
A: > 100000 nM

Q: What about the TGI (DMS 273 small cell lung) of the same compound?
A: > 100000 nM

Q: And the TGI (EKVX NSCLC)?
A: > 100000 nM

Q: And the TGI (HCC-2998 colon)?
A: > 100000 nM

Q: What about the TGI (HCT-116 colon) of the same compound?
A: > 100000 nM

Q: And the TGI (HCT-15 colon)?
A: > 100000 nM

Q: And the TGI (HOP-92 NSCLC)?
A: > 100000 nM

Q: And the TGI (HT29 colon)?
A: > 100000 nM

Q: What about the TGI (IGROV1 ovarian) of the same compound?
A: > 100000 nM

Q: What about the TGI (K-562 leukemia) of the same compound?
A: > 100000 nM

Q: What about the TGI (KM12 colon) of the same compound?
A: > 100000 nM

Q: What about the TGI (KM20L2 colon) of the same compound?
A: > 100000 nM

Q: What about the TGI (LXFL 529 NSCLC) of the same compound?
A: > 100000 nM

Q: What about the TGI (M19-MEL melanoma) of the same compound?
A: > 100000 nM

Q: And the TGI (MALME-3M melanoma)?
A: > 100000 nM

Q: And the TGI (MOLT-4 leukemia)?
A: > 100000 nM

Q: And the TGI (NCI-H226 lung)?
A: > 100000 nM

Q: And the TGI (NCI-H23 lung)?
A: > 100000 nM

Q: What about the TGI (NCI-H522 lung) of the same compound?
A: > 100000 nM

Q: And the TGI (OVCAR-3 ovarian)?
A: > 100000 nM

Q: What about the TGI (OVCAR-4 ovarian) of the same compound?
A: > 100000 nM

Q: And the TGI (OVCAR-5 ovarian)?
A: > 100000 nM

Q: And the TGI (OVCAR-8 ovarian)?
A: > 100000 nM

Q: And the TGI (RPMI-8226 leukemia)?
A: > 100000 nM

Q: And the TGI (RXF 393 renal)?
A: > 100000 nM

Q: What about the TGI (SF-268 CNS) of the same compound?
A: > 100000 nM

Q: What about the TGI (SF-295 CNS) of the same compound?
A: > 100000 nM

Q: What about the TGI (SK-MEL-2 melanoma) of the same compound?
A: > 100000 nM

Q: What about the TGI (SK-MEL-28 melanoma) of the same compound?
A: > 100000 nM

Q: What about the TGI (SK-MEL-5 melanoma) of the same compound?
A: > 100000 nM

Q: What about the TGI (SK-OV-3 ovarian) of the same compound?
A: > 100000 nM

Q: What about the TGI (SN12C renal) of the same compound?
A: > 100000 nM

Q: What about the TGI (SNB-19 CNS) of the same compound?
A: > 100000 nM

Q: What about the TGI (SNB-75 CNS) of the same compound?
A: > 100000 nM

Q: And the TGI (SNB-78 CNS)?
A: > 100000 nM

Q: And the TGI (SR leukemia)?
A: > 100000 nM

Q: What about the TGI (SW-620 colon) of the same compound?
A: > 100000 nM

Q: And the TGI (TK-10 renal)?
A: > 100000 nM

Q: What about the TGI (U251 CNS) of the same compound?
A: > 100000 nM

Q: And the TGI (UACC-257 melanoma)?
A: > 100000 nM

Q: What about the TGI (UACC-62 melanoma) of the same compound?
A: > 100000 nM

Q: What about the TGI (UO-31 renal) of the same compound?
A: > 100000 nM

Q: What does the source list for `CC[C@@]1(O)C[C@H](OC2CC(N(C)C)C(OC3CC(O)C(OC4CCC(=O)C(C)O4)C(C)O3)C(C)O2)c2c(cc3c(c2O)C(=O)c2c(O)ccc(O)c2C3=O)[C@H]1C(=O)OC` (stereo partly specified)?
A: TGI (A498 renal): 14.2 nM and 24.5 nM; GI50 (A549 NSCLC): 0.449 nM; TGI (ACHN renal): 16.4 nM and 25.8 nM and 22.5 nM; TGI (BT-549 breast): 9.27 nM and 2.76 nM; TGI (CCRF-CEM leukemia): 12 nM and 47.8 nM; TGI (DLD-1 colon): 73.7 nM; GI50 (DMS 114 small cell lung): 0.291 nM; TGI (DMS 114 small cell lung): 22 nM and 30.6 nM and 34.7 nM; TGI (DMS 273 small cell lung): 14 nM and 19.8 nM; TGI (DU-145 prostate): 38 nM; GI50 (HCT-116 colon): 0.054 nM; TGI (HCT-116 colon): < 0.1 nM; TGI (HCT-15 colon): 5.81 nM and 29.8 nM; GI50 (HOP-18 NSCLC): 11700 nM; TGI (HOP-18 NSCLC): 24100 nM; TGI (HOP-92 NSCLC): 35.3 nM and 71.3 nM and 92 nM; TGI (HT29 colon): 16.2 nM [middle of 4 runs]; TGI (K-562 leukemia): 119 nM; TGI (KM12 colon): 31.4 nM and 12.6 nM and 113 nM; GI50 (KM20L2 colon): 0.0667 nM; TGI (KM20L2 colon): 78.1 nM and 41 nM and 200 nM; TGI (LOX IMVI melanoma): 0.668 nM; GI50 (LXFL 529 NSCLC): 0.0112 nM; TGI (M14 melanoma): 18.5 nM and 37.4 nM and 152 nM; GI50 (M19-MEL melanoma): 0.0125 nM; TGI (M19-MEL melanoma): 12.1 nM and 12.9 nM and 33.6 nM; TGI (MCF7 breast): 101 nM; TGI (MDA-N): 2.59 nM; TGI (NCI-H226 lung): 6.41 nM and 27.5 nM; GI50 (NCI-H460 lung): 0.0541 nM; TGI (NCI-H460 lung): 0.343 nM and < 0.1 nM; TGI (OVCAR-5 ovarian): 22.1 nM and 65 nM; TGI (PC-3 prostate): 6.2 nM; TGI (SK-MEL-2 melanoma): 16.6 nM and 19.8 nM and 24.3 nM; GI50 (SK-OV-3 ovarian): 22.1 nM; GI50 (SNB-78 CNS): 3.11 nM; TGI (T-47D breast): 5.69 nM and 12.1 nM; GI50 (UACC-257 melanoma): < 0.1 nM; TGI (UACC-62 melanoma): 12 nM and 11.8 nM and 20.5 nM; TGI (UO-31 renal): 0.508 nM and < 0.1 nM
